Results reported in ChEMBL document CHEMBL1201862, “PubChem BioAssay data set” (2004).
Activity calls are given as the source filed them.

What was measured:
[1] = molecular target: T1, Low molecular weight phosphotyrosine protein phosphatase (Homo sapiens, UniProt P24666); type: functional; conditions: read-out: IC50_Mean
T1 sequence (P24666 whole entry): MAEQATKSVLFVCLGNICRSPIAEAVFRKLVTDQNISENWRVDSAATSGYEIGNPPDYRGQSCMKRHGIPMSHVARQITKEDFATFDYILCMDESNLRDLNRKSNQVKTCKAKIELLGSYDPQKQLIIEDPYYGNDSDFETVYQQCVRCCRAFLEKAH

[2] = molecular target: T1, Low molecular weight phosphotyrosine protein phosphatase; type: functional; conditions: read-out: IC50_Mean; remark: listed apart in the source
[3] = molecular target: T2, Voltage-gated N-type calcium channel alpha-1B subunit/Amyloid beta A4 precursor protein-binding family A member 1 (Homo sapiens, UniProt Q00975+Q02410); type: protein assay
T2 sequence (Q00975 whole entry): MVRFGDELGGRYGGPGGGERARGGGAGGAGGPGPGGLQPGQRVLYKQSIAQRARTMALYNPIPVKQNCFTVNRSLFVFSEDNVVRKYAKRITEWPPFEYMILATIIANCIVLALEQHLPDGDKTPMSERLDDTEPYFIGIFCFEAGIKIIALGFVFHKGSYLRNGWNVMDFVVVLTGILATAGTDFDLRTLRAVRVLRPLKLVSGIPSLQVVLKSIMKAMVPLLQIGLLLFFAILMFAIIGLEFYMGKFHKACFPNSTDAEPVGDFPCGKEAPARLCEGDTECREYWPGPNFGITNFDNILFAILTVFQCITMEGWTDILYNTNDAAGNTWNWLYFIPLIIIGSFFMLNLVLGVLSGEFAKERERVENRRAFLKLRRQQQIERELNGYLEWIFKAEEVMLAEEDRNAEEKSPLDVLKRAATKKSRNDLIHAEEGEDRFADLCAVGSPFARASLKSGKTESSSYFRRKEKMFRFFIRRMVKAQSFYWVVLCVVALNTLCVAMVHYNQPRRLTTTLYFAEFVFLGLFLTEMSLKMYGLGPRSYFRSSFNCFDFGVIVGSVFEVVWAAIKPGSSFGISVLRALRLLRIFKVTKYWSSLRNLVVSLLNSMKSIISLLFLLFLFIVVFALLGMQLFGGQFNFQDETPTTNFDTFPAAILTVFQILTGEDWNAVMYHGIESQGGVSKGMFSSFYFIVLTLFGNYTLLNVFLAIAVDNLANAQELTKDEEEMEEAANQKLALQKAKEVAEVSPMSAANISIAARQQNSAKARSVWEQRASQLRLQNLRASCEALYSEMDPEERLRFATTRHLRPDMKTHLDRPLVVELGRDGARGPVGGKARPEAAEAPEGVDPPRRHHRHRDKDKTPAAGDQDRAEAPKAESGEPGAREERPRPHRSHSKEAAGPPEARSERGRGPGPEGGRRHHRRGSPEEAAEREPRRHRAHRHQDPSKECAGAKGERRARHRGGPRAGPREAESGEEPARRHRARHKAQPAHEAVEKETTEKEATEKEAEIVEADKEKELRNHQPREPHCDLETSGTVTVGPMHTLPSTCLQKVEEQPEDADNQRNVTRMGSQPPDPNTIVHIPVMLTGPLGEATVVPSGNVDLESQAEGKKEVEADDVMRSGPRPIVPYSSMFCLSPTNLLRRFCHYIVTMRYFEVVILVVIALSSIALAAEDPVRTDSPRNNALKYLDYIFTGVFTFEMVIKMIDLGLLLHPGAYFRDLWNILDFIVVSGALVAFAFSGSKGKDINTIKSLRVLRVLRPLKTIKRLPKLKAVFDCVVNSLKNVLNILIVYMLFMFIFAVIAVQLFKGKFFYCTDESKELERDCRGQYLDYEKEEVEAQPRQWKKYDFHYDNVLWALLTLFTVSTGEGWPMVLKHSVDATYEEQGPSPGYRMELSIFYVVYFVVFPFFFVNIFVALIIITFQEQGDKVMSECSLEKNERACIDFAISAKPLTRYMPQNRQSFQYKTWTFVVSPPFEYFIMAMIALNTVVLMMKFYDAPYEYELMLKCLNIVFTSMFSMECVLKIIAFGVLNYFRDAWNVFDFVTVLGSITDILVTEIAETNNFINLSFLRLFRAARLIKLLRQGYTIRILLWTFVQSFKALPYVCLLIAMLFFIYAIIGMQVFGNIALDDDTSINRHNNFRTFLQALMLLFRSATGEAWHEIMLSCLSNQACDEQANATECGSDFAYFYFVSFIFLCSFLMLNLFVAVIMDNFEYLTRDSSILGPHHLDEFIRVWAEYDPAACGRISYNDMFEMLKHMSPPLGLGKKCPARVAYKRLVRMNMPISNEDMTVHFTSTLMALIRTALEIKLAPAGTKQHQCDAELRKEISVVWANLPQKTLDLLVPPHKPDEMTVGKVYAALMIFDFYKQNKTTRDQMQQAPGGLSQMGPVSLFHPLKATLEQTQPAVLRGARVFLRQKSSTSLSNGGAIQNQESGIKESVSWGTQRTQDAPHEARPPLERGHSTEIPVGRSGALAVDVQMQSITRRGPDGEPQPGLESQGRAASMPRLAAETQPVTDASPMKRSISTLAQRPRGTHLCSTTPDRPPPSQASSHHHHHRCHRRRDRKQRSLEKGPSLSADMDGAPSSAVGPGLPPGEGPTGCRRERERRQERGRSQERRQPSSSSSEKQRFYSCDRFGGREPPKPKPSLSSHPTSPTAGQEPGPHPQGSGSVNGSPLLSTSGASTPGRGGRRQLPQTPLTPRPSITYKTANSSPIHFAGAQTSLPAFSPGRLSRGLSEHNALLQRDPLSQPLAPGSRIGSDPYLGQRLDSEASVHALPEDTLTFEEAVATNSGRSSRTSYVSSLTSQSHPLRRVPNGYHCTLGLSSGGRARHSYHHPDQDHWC
T2 sequence (Q02410 whole entry): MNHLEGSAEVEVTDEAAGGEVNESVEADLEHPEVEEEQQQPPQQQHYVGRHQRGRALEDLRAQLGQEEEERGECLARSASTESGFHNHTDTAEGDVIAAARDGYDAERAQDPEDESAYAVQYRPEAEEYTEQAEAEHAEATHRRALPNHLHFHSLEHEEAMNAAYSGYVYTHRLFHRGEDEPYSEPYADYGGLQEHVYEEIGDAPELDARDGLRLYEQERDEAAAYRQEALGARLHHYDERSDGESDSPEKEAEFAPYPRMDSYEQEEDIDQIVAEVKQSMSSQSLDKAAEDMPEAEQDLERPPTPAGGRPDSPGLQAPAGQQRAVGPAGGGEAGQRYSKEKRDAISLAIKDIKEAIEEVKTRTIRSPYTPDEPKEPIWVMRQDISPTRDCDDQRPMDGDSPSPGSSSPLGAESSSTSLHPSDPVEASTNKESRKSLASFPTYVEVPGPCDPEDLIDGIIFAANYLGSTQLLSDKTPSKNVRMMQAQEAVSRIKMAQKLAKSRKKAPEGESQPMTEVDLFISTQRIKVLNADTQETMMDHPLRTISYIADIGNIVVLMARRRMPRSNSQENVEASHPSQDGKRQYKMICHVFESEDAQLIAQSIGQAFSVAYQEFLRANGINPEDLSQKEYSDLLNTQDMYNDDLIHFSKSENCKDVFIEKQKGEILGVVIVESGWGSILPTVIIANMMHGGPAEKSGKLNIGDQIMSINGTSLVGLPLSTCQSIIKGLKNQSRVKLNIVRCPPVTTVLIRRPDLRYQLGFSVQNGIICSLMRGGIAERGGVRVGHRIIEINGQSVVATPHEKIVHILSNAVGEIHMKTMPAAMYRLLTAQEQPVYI

[4] = molecular target: T2, Voltage-gated N-type calcium channel alpha-1B subunit/Amyloid beta A4 precursor protein-binding family A member 1; type: protein assay; remark: listed apart in the source
[5] = molecular target: T3, Carboxy-terminal domain RNA polymerase II polypeptide A small phosphatase 1 (Homo sapiens, UniProt Q9GZU7); test: CTDSP1 inhibitors, concentration-response, biochemical, absorbance readout, ultra-high-throughput screen actives (AID 540297); type: functional
T3 sequence (Q9GZU7 whole entry): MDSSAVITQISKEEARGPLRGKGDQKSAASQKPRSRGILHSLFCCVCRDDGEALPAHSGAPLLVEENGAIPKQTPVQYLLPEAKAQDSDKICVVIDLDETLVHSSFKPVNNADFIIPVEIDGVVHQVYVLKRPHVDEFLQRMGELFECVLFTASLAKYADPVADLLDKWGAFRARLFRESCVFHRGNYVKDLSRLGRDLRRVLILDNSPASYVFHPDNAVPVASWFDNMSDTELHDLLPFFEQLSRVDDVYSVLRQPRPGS

[6] = molecular target: T4, Small ubiquitin-related modifier 1 (Homo sapiens, UniProt P63165); test: SUMO1 protein interaction blockers, potency – biochemical, fluorescence polarization, uHTS hits, dose response (AID 624382); type: functional; conditions: read-out: IC50_Mean
T4 sequence (P63165 whole entry): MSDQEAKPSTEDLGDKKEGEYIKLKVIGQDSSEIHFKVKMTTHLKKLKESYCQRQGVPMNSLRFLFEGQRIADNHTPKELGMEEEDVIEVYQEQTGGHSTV

[7] = molecular target: T4, Small ubiquitin-related modifier 1; test: SUMO1 protein-protein binding blockers, potency – biochemical, FRET, dose response (AID 624383); type: functional; conditions: read-out: IC50_Mean
[8] = activation of miR-122 Renilla sensor silencing – cell-based, Huh7 psiCHECK-miR122, Renilla luciferase, cherry-picked, dose response (AID 651956); type: functional;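 note: huh7 hepatoma cells stably carrying a psiCHECK-2 miR-122 sensor plasmid; renilla luciferase signal reporting endogenous miR-122 activity after 48 h compound exposure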
[9] = Fluorescence-based cell-based high throughput dose response assay for inhibitors of the interaction of nucleotide-binding oligomerization domain containing 2 (NOD2) and the receptor-interacting serine-threonine kinase 2 (RIPK2).; type: functional; conditions: Homo sapiens
[10] = Luminescence Cell-Based Dose Retest to Confirm Inhibitors of Cancer Stem Cells. [Related pubchem assays (depositor defined):AID2717, AID2721]; type: functional; conditions: Homo sapiens
[11] = molecular target: T5, Microphthalmia-associated transcription factor (Homo sapiens, UniProt O75030); test: reducers of TRPM1 reporter luminescence, concentration series – cell-based, SK-MEL-5, cherry-picked, set 3, MITF inhibitor project, dose response (AID 493073); type: functional;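 note: SK-MEL-5 melanoma cells with luciferase driven by the MITF target TRPM1 promoter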
T5 sequence (O75030 whole entry): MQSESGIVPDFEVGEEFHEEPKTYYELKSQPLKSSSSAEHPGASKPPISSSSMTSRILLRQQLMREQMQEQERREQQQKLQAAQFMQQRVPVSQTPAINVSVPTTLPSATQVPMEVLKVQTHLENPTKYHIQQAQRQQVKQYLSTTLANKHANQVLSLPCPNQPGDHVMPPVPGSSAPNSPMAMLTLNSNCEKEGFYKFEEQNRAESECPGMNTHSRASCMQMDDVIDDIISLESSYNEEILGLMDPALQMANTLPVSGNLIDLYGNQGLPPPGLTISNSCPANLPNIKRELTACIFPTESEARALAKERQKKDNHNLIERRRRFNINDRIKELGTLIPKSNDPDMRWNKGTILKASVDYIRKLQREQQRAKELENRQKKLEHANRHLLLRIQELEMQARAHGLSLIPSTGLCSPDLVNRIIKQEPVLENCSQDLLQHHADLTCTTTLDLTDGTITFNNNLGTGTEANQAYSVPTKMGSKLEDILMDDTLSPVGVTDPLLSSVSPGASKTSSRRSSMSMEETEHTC

[12] = viability loss in HeLa cells – cytotoxicity control for MgcRacGAP inhibitor project, dose response (AID 624300); type: functional
[13] = molecular target: T6, Short transient receptor potential channel 4 (Mus musculus, UniProt Q9QUQ5); test: calcium entry via TRPC4 opening agents – cell-based, HEK293 TRPC4/mu-opioid, Fluo-4 calcium, dose response (AID 434937); type: functional
T6 sequence (Q9QUQ5 whole entry): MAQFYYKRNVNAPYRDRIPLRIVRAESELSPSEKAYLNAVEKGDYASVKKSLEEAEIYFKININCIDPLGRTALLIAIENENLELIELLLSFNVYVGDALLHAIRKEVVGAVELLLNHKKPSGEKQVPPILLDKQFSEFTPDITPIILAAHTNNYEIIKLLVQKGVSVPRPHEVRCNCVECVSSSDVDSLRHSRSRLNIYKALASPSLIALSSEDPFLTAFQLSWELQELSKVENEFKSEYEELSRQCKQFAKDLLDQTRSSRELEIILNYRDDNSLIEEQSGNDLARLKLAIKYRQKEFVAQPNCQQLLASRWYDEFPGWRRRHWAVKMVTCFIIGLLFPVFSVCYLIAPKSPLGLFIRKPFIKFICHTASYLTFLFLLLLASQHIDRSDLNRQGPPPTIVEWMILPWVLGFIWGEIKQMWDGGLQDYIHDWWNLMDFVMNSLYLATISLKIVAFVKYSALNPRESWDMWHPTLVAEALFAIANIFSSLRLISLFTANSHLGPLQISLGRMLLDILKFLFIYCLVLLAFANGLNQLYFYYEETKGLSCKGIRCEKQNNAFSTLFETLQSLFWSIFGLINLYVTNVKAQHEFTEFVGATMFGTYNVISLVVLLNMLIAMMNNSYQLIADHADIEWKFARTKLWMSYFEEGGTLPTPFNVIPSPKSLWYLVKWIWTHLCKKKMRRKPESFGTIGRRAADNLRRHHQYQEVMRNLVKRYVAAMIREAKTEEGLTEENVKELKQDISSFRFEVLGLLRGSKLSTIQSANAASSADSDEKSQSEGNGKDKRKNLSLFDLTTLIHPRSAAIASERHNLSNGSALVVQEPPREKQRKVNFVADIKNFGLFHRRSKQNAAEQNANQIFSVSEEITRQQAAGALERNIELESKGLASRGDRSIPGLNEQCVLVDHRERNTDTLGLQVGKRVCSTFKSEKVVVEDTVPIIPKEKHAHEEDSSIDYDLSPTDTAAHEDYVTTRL

[14] = loss of viability in HepG2 cells – cell-based, CellTiter-Glo, cherry-picked, cytotoxicity control for Shn3 inhibitor project, dose response (AID 624134); type: functional
[15] = non-specific 3'UTR reporter inhibition in Clone20-Shn3RL – cell-based, Renilla luciferase, cherry-picked, counter-screen for Shn3 inhibitor project, dose response (AID 624133); type: functional
[16] = NIH3T3 cell viability loss – ATP luminescence, mouse fibroblasts, counter-screen, dose response (AID 2010); type: functional, cell-based;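 note: cells exposed to compound for about 90 hours before reading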
[17] = Trypanosoma cruzi growth suppression in host cells – NIH3T3 host cells, beta-gal luminescence, confirmation (AID 2044); type: functional, cell-based;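 note: intracellular parasites grown in NIH/3T3 mouse fibroblasts as host cells; luminescent beta-galactosidase reporter signal from transgenic T. cruzi replicating inside host cells; inhibitors lower the luminescence signal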
[18] = molecular target: T7, Rac GTPase-activating protein 1 (Homo sapiens, UniProt Q9H0H5); test: blockers of MgcRacGAP-driven Rac1 GTP hydrolysis – biochemical, ADP Hunter fluorescence, primary and confirmatory, confirmation (AID 624330); type: functional
T7 sequence (Q9H0H5 whole entry): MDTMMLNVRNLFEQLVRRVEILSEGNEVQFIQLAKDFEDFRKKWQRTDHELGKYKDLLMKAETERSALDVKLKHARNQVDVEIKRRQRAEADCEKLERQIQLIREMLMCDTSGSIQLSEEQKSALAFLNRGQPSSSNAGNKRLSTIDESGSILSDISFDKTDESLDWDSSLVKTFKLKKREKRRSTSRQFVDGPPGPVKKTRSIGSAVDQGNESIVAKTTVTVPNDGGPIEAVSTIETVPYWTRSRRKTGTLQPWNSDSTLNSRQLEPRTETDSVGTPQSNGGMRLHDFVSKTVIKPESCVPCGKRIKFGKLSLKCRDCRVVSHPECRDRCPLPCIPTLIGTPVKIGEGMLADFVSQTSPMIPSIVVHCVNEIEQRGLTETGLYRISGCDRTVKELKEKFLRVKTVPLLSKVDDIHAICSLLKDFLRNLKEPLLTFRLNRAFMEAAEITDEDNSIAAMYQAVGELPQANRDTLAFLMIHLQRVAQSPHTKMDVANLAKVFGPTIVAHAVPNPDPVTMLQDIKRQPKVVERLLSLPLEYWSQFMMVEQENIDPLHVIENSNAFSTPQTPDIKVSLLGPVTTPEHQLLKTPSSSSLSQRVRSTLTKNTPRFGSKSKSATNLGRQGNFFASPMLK

[19] = reduction of Shn3 3'UTR-driven luciferase in osteoblasts – cell-based, Clone20 osteoblasts, firefly luciferase, cherry-picked, dose response (AID 624132); type: functional;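 note: firefly luciferase luminescence from reporter carrying the Shn3 3'UTR in osteoblasts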

Question: With `CCOc1cc(/C=C(/C#N)C(=O)Nc2ccc(OC)cc2)ccc1OCc1ccc(C(=O)O)cc1` as the compound, how does the IC50 [1] read?
Answer: 9.46 µM (active)

Question: And the IC50 [2]?
Answer: 6.48 µM (active)

Question: And the IC50 [3]?
Answer: 13.1 µM (active)

Question: And the IC50 [4]?
Answer: > 50 µM (inactive)

Question: Which IC50 [5] does the source give for `C=Cc1ccc(C(=O)N2CCCC(CCC(=O)N3CCN(c4ccccn4)CC3)C2)cc1` (configuration not stated) here?
Answer: 22.2 µM (active)

Question: What about the IC50 [6] of the same compound?
Answer: > 66.6 µM (inactive)

Question: And the IC50 [7]?
Answer: 20.8 µM (inactive)

Question: What about the IC50 [3] of the same compound?
Answer: 8.01 µM (active)

Question: And the IC50 [4]?
Answer: > 50 µM (inactive)

Question: With `COCC(=O)N(C)C[C@H]1Oc2cc(C#Cc3cccnc3)ccc2S(=O)(=O)N([C@@H](C)CO)C[C@H]1C` as the compound, how does the AC50 [8] read?
Answer: 1.09 µM (active)

Question: For `O=C(/C=C/c1ccc(Cl)c([N+](=O)[O-])c1)c1ccc(O)cc1`, which IC50 [9] is on record?
Answer: 7.04 µM (active)

Question: And the AC50 [10]?
Answer: 4.36 µM (active)

Question: What about the AC50 [11] of the same compound?
Answer: 17.4 µM (active)

Question: Which CC50 [12] does the source give for `COc1ccc(CN2CCC(N(CCc3ccccc3)Cc3ccccc3)CC2)c(OC)c1` here?
Answer: 56.3 µM (active)

Question: And the EC50 [13]?
Answer: 5.31 µM (active)

Question: What about the AC50 [14] of the same compound?
Answer: 13.6 µM (active)

Question: What about the AC50 [15] of the same compound?
Answer: 8.85 µM (active)

Question: What about the EC50 [16] of the same compound?
Answer: > 60 µM (inconclusive)

Question: What about the EC50 [17] of the same compound?
Answer: 1.49 µM (active)

Question: And the IC50 [18]?
Answer: 96.6 µM (active)

Question: What about the AC50 [10] of the same compound?
Answer: 5.9 µM (active)

Question: What about the AC50 [19] of the same compound?
Answer: 8.1 µM (active)
